Earlier results as cited in US20200268735A1, “Combination Therapy of Lasmiditan and a CGRP Antagonist for Use in the Treatment of Migraine” (Eli Lilly and Company, priority 2017, published 2020).
Read-outs that look alike come from different tables or passages of the source.

Experiments:
[1] = SAMURAI, lasmiditan 200 mg, p<0.001
[2] = SPARTAN, lasmiditan 200 mg, p<0.001
[3] = for reduction in mean monthly migraine headache days: placebo 2.3 days

## CN1CCC(C(=O)c2cccc(NC(=O)c3c(F)cc(F)cc3F)n2)CC1 [lasmiditan, 2,4,6-trifluoro-N-[6-(1-methyl-piperidin-4-ylcarbonyl)-pyridin-2-yl]-benzamide]
[1]; placebo 15.3%
  proportion of patients headache pain-free at 2 hours post-first dose: 32.2%
[1]; placebo 29.5%
  proportion of patients most bothersome symptom (MBS)-free at 2 hours post-first dose: 40.7%
[2]; placebo 21.3%
  proportion of patients headache pain-free at 2 hours post-first dose: 38.8%
[2]; placebo 33.5%
  proportion of patients most bothersome symptom (MBS)-free at 2 hours post-first dose: 48.7%
After the first dose
  severity of most treatment-emergent adverse events: mild-to-moderate
Lasmiditan 100 mg, 50 mg, both endpoints
  headache pain-free and MBS-free endpoints, other dose groups compared to placebo: significance was also noted
≥2% and greater than placebo
  most frequently reported TEAEs after the first dose: dizziness, paresthesia, somnolence, fatigue, nausea, and lethargy

B1: galcanezumab: monoclonal antibody targeting calcitonin gene-related peptide (CGRP) (antibody, chains of the INN, looked up, V domains shown)
VH: QVQLVQSGAEVKKPGSSVKVSCKASGYTFGNYWMQWVRQAPGQGLEWMGAIYEGTGKTVYIQKFADRVTITADKSTSTAYMELSSLRSEDTAVYYCARLSDYVSGFGYWGQGTTVTVSS
VL: DIQMTQSPSSLSASVGDRVTITCRASKDISKYLNWYQQKPGKAPKLLIYYTSGYHSGVPSRFSGSGSGTDFTLTISSLQPEDFATYYCQQGDALPPTFGGGTKVEIK
[3]; 240 mg group
  adverse events significantly more frequent versus placebo: significantly more injection site erythema
[3]; both doses (120 and 240 mg)
  all key secondary endpoints versus placebo: superior to placebo
[3]; both galcanezumab doses
  adverse events significantly more frequent versus placebo: significantly more injection site reactions and injection site pruritus
[3]; galcanezumab 120 mg once monthly
  reduction in mean monthly migraine headache days: 4.3 days
[3]; galcanezumab 240 mg once monthly
  reduction in mean monthly migraine headache days: 4.2 days
[3]; reported at similar rates in all treatment groups
  most common treatment-emergent adverse event: Injection site pain
